Results reported in ChEMBL document CHEMBL4371020, “Synthesis and biological evaluation of 1H-pyrrolo[2,3-d]pyrimidine-1,2,3-triazole derivatives as novel anti-tubercular agents” (2019).
Converted amounts (≈) assume the structure as drawn.

test system: Mycobacterium tuberculosis; test: Antimicrobial activity against Mycobacterium tuberculosis H37Rv after 7 days by microplate alamar blue assay; assay type: functional; details: 168 h

SMILES	MIC
Clc1ccc(Oc2ccccc2)cc1-n1cc(Cn2ccc3cncnc32)nn1	6.25 µg/mL (≈ 15.5 µM)
Brc1ccccc1Cn1cc(Cn2ccc3cncnc32)nn1	> 25 µg/mL
O=c1oc2ccccc2cc1-n1cc(Cn2ccc3cncnc32)nn1	3.12 µg/mL (≈ 9.06 µM)
Fc1ccc(-c2cc(Cn3cc(Cn4ccc5cncnc54)nn3)on2)cc1	0.78 µg/mL (≈ 2.08 µM)
Clc1ccc(-n2cc(Cn3ccc4cncnc43)nn2)cc1	25 µg/mL (≈ 80.5 µM)
Cc1onc(-c2ccccc2)c1Cn1cc(Cn2ccc3cncnc32)nn1	6.25 µg/mL (≈ 16.8 µM)
c1ccc(Cn2cc(Cn3ccc4cncnc43)nn2)cc1	> 25 µg/mL
c1ccc(-c2cc(Cn3cc(Cn4ccc5cncnc54)nn3)cc(-c3ccccc3)n2)cc1	6.25 µg/mL (≈ 14.1 µM)
c1ccc(-c2cc(Cn3cc(Cn4ccc5cncnc54)nn3)on2)cc1	0.78 µg/mL (≈ 2.18 µM)
c1ccc(Sc2ccccc2-n2cc(Cn3ccc4cncnc43)nn2)cc1	6.25 µg/mL (≈ 16.3 µM)
COc1ccc(Cn2cc(Cn3ccc4cncnc43)nn2)cc1	> 25 µg/mL
O=[N+]([O-])c1ccc(Cn2cc(Cn3ccc4cncnc43)nn2)cc1	> 25 µg/mL
Fc1ccc(Cn2cc(Cn3ccc4cncnc43)nn2)cc1	> 25 µg/mL
O=[N+]([O-])c1ccc(-n2cc(Cn3ccc4cncnc43)nn2)cc1	> 25 µg/mL
COc1cccc(-n2cc(Cn3ccc4cncnc43)nn2)c1[N+](=O)[O-]	25 µg/mL (≈ 71.2 µM)
NNC(=O)c1ccncc1 [ISONIAZID]	0.1 µg/mL (≈ 0.729 µM)
Fc1ccc(Oc2ccc(Cn3cc(Cn4ccc5cncnc54)nn3)cc2)cc1	3.12 µg/mL (≈ 7.79 µM)
Brc1ccc(Cn2cc(Cn3ccc4cncnc43)nn2)cc1	> 25 µg/mL
COC(=O)CCn1cc(Cn2ccc3cncnc32)nn1	1.56 µg/mL (≈ 5.45 µM)
Oc1ccccc1-n1cc(Cn2ccc3cncnc32)nn1	6.25 µg/mL (≈ 21.4 µM)
C=CCn1cc(Cn2ccc3cncnc32)nn1	6.25 µg/mL (≈ 26 µM)
Fc1ccccc1Cn1cc(Cn2ccc3cncnc32)nn1	> 25 µg/mL
CC[C@@H](CO)NCCN[C@@H](CC)CO [ETHAMBUTOL]	1.56 µg/mL (≈ 7.64 µM)
O=C(O)c1cn(C2CC2)c2cc(N3CCNCC3)c(F)cc2c1=O [CIPROFLOXACIN]	1.56 µg/mL (≈ 4.71 µM)
CO[C@H]1/C=C/O[C@@]2(C)Oc3c(C)c(O)c4c(O)c(c(/C=N/N5CCN(C)CC5)c(O)c4c3C2=O)NC(=O)/C(C)=C\C=C\[C@H](C)[C@H](O)[C@@H](C)[C@@H](O)[C@@H](C)[C@H](OC(C)=O)[C@@H]1C [RIFAMPIN]	0.2 µg/mL (≈ 0.243 µM)
Clc1ccc(Cn2cc(Cn3ccc4cncnc43)nn2)cc1	3.12 µg/mL (≈ 9.61 µM)
Fc1cccc(-n2cc(Cn3ccc4cncnc43)nn2)c1	> 25 µg/mL
CCOC(=O)/C=C/Cn1cc(Cn2ccc3cncnc32)nn1	> 25 µg/mL
